Biological target: T1, CB2 receptor (Mus musculus, UniProt P47936)
T1 construct: membranes were prepared from frozen mouse spleen; from tissue; host or cells: mouse spleen membranes
Experiment: CB2 receptor binding assay ([3H] CP-55,940 displacement, mouse spleen membranes)
Conditions: CB2 (mouse spleen) versus CB1 (rat forebrain membranes) binding affinity
Description: As used herein, “binding affinity” (Ki) is represented by the IC50 value which is the concentration of an analog required to occupy the 50% of the total number (Bmax) of the receptors. The lower the IC50 value the higher the binding affinity. […] The AM1703 material was tested for CB2 receptor binding affinity and for CB1 receptor affinity (to determine selectivity for the CB2 receptor).
Membranes, previously frozen at −80° C., were thawed on ice. To the stirred suspension was added three volumes of TME (25 mM Tris-HCI buffer, 5 mM MgCl2 and 1 mM EDTA) at a pH 7.4. The suspension was incubated at 4° C. for 30 min. At the end of the incubation, the membranes were pelleted and washed three times with TME.
The treated membranes were subsequently used in the binding assay described below. Approximately 30 μg of membranes were incubated in silanized 96-well microtiter plate with TME containing 0.1% essentially fatty acid-free bovine serum albumin (BSA), 0.8 nM [^3H] […] Radioactivity was detected using MicroScint 20 scintillation cocktail added directly to the dried filterplates, and the filterplates were counted using a Packard Instruments Top-Count. Nonspecific binding was assessed using 100 nM CP-55,940. […] CP-55,940, determined using buffer and 100 nM CP-55,940. The normalized data was analyzed using a 4-parameter nonlinear logistic equation to yield IC50 values. […]

T1 sequence (P47936 whole entry): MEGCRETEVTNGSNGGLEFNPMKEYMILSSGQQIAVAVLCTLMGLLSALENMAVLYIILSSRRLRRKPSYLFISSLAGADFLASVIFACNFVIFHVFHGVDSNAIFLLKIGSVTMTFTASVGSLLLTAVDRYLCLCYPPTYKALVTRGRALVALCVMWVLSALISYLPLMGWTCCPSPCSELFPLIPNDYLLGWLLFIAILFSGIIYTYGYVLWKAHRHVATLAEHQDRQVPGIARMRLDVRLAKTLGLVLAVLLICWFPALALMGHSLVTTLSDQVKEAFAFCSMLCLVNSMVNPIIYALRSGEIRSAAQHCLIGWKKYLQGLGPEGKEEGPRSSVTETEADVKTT

Compound: C#CCCCCC(C)(C)c1cc(O)c([C@@H]2CC(=O)[C@@H]3C[C@H]2C3(C)C)c(O)c1 [AM1703]
- CB2 selectivity over CB1: ~500 fold

From patent US7335688B2, “Bicyclic cannabinoid agonists for the cannabinoid receptor” (University of Connecticut, priority 1999, dated 2008)
